# Assay results as given in article PMC5438648, “Identifying the structure-activity relationship of leelamine necessary for inhibiting intracellular cholesterol transport” (Oncotarget, 2017).
# Legend:
# [1] = test system: normal human fibroblast cell line FF2441; assay: MTS cell viability assay, normal fibroblasts; type: cell-based; conditions: 72 hours treatment, read-out: Melanoma cell killing efficacy (IC50 values) FF2441 (Normal Cells)
# Method: (§1) Dr. Craig Myers, Penn State College of Medicine, Hershey, PA provided normal human fibroblast cell line FF2441. Mutant V600E-BRAF human melanoma cell line 1205 Lu was provided by Dr. Herlyn; Wistar Institute, Philadelphia, PA and UACC 903 was provided by Dr. Mark Nelson; University of Arizona, Tucson, AZ. Cell lines were maintained in a 37°C humidified 5% CO2 atmosphere incubator and periodically monitored for phenotypic, genotypic characteristics, and tumorigenic potential to validate and confirm cell line identity.
# (§2) In brief, 5 × 10^3 cells per well in 100 μL of media were seeded and grown in a 96-well plate for 48 to 72 hours and treated with either DMSO vehicle control or 0.62 to 100 μmol/L of compounds for 72 hours. IC50 values for each compound in μmol/L for respective cell lines were measured from three independent experiments using GraphPad Prism version 4.01 (GraphPad Software, La Jolla, CA). In addition, recovery and viability assessment was also measured with these compounds co-treated simultaneously with 10 nmol/L of bafilomycin A1 (BafA1) or 1 mMol/L β-cyclodextrin and the viability was measured using the MTS assay after 24 hours.
# [2] = Body weight and sub-chronic toxicity assessment (blood biomarkers) in tumor-bearing mice; type: in vivo; conditions: 80 mg/kg oral daily; for body weights of mice: 24 days of treatment
# Method: (§3) 1 × 10^6 UACC 903 cells in 0.2 mL of DMEM supplemented with 10% FBS were subcutaneously injected above both left and right rib cages of 4–6 week old female athymic nu/nu mice. Six to eight days later, mice were randomly sorted into vehicle control 10% PEG (Poly ethylene glycol) and experimental compound 4a or leelamine groups, followed by daily oral administration of 80 mg/kg body weight. Volume of developing tumors in mm^3 was measured on alternate days using calipers along with assessment of body weights.
# At the end of tumorigenicity assessment, blood was collected from each euthanized animal in a serum separator tube with lithium heparin (BD Microtainer), following cardiac puncture and analyzed for levels of ALT (Alanine aminotransferase), AST (Aspartate aminotransferase), ALKP (Alkaline phosphatase), ALB (Albumin), GLB (Globulin), TPR (Total Protein), TBIL (Total bilirubin), BUN (Blood urea nitrogen), GLU (Glucose), CK (Creatine kinase), CAL (Calcium).
# 1205 Lu melanoma cells = assay: MTS cell viability assay, 1205 Lu melanoma cells; type: cell-based, human; conditions: Homo sapiens, 1205Lu, 72 h, 72 hours treatment, read-out: Melanoma cell killing efficacy (IC50 values) 1205 Lu (Melanoma cells)
# Method: as §1, §2
# [3] = Pharmacokinetics of leelamine in the serum of mice; type: in vivo; conditions: 80 mg/kg oral, Swiss Webster mice
# Method: Leelamine was extracted from serum as reported previously. Swiss Webster mice were treated orally with 80 mg/kg body weight of leelamine, animals were euthanized and blood drawn by cardiac puncture at various time periods over 36 hours. Samples were kept at room temperature for 30 minutes followed by serum separation by centrifugation for 5 minutes at 5,000 rpm. Next, 20 μL of the collected serum was added to 80 μL of acetonitrile along with 5 μL of propranolol (RS)-1-(1-methylethylamino)-3-(1-naphthyloxy)propan-2-ol), which served as an internal standard (transition of m/z 259.9 to 116.0). Solution was vortexed for 30 seconds and then centrifuged at 10,000 rpm for 10 minutes. Supernatant was transferred to the auto sampler vials and subject to liquid chromatography-mass spectrometry using LC-MS/MS 2010 EV system (Shimadzu, Tokyo, Japan).
# UACC 903 melanoma cells [4] = assay: MTS cell viability assay, UACC 903 melanoma cells; type: cell-based, human; conditions: Homo sapiens, UACC-903, 72 h, 72 hours treatment, read-out: Melanoma cell killing efficacy (IC50 values) UACC 903 (Melanoma cells)
# Method: as §1, §2
# [5] = test system: UACC 903 melanoma cell line; assay: Western blot of signaling pathways (PI3K/AKT, STAT3, MAPK; pERK1/2); type: cell-based, human; conditions: active 3-5 μmol/L, inactive 30-50 μmol/L, 24 hours
# Text: (§4) Cell lysates were harvested and processed as described in refs [14, 29, 31, 34]. […] Protein lysates were collected for Western blotting analysis. Blots were probed with antibodies according to each supplier's recommendations: antibodies to IGF-1R, total AKT, phosphor AKT (Ser473), total PRAS40, phospho-PRAS40 (Thr246), total ERK1/2, phospho-ERK1/2 (Thr202/Tyr 204), total CDK2, phospho-CDK2 (Thr160), p62, LC3B, total STAT, phospho-STAT3 (Tyr705), caspase 3 and cleaved PARP from Cell Signaling Technology (Danvers, MA); cyclin D1, α-enolase and secondary antibodies conjugated with horseradish peroxidase from Santa Cruz Biotechnology (Santa Cruz, CA). Immunoblots were developed using the enhanced chemiluminescence (ECL) detection system (Thermo Fisher Scientific, Rockford, IL).
# [6] = Dose escalation for oral administration of leelamine; type: in vivo; conditions: 80 mg/kg body weight (QOD) over 14 days, Swiss Webster mice
# Method: To determine the effective oral dosage of leelamine, a dose escalation study was conducted in 4–6 week old Swiss Webster mice. […] Animals were weighed daily to ascertain potential toxic effects leading to changes in body weight. At the end of treatment, blood was collected from each sacrificed animal in a serum separator tube with lithium heparin (BD Microtainer) following cardiac puncture and levels of serum biomarkers of major organ toxicity were measured. In addition, vital organs including liver, spleen, kidney, intestine, lung and heart from control and experimental animals were collected on day 14, formalin fixed, paraffin-embedded, H&E stained and analyzed microscopically for changes in cellular morphology or tissue architecture.
# melanoma cells = assay: Autophagic flux: Western blot of p62 and LC3B; type: cell-based, human; conditions: Western blotting, 24 hours
# Text: as §4
# UACC 903 melanoma cells [7] = assay: Tumorigenicity assessment, xenografted melanoma tumors; type: in vivo; conditions: 80 mg/kg oral daily; UACC 903 xenograft, athymic nu/nu mice
# Method: as §3
SMILES,IC50 [1],body weights of mice [2],IC50 (1205 Lu melanoma cells),time present in the serum ([3]; followed over 36 hours),"Tmax ([3]; mouse, serum, LC-MS/MS, read-out: time of maximum concentration in serum)",IC50 (UACC 903 melanoma cells [4]),"effect on PI3K/AKT, STAT3 and MAPK signaling pathways [5]",weight loss on repeated oral dosing [6],autophagic flux (p62 and LC3B proteins) (melanoma cells),"blood parameters (ALT, AST, ALKP, ALB, GLB, TPR, TBIL, BUN, GLU, CK and CAL) indicative of organ-related sub-chronic toxicity ([2]; end of study)",reduction of tumor volume compared with vehicle control (UACC 903 melanoma cells [7])
CC(C)c1ccc2c(c1)CCC1C(C)(CN)CCCC21C (centres unmarked) [Leelamine],8.91 ± 0.6 µM,No significant differences,1.93 ± 0.2 µM,≤ 24 h,6 h,1.35 ± 0.1 µM,inhibited,did not cause any weight loss,dose dependently induced accumulation of p62 and LC3B proteins,,
"CC(C)C1=CC2=CCC3[C@](C)(CN)CCC[C@]3(C)C2CC1 (stereo partly drawn) [4a, [(1R, 4aR)-1,4a-dimethyl-7-(propan-2-yl)-1,2,3,4,4a, 4b, 5,6,10,10a-decahydrophenanthren-1-yl] methanamine]",8.33 ± 0.4 µM,No significant differences,2.9 µM,,,2.1 µM,inhibited,,dose dependently induced accumulation of p62 and LC3B proteins,fell in the normal range,51%
